≈ marks a conversion by molar mass, not a printed value.
Experiments:
[1] = system: Pseudomonas aeruginosa; test: Antibiofilm activity against Pseudomonas aeruginosa PA14 assessed as reduction in biofilm biomass production at 18 ug/ml relative to control; type: functional; set-up: scale not given: the % may be the effect or the level left; conditions: dose 18 µg/ml
[2] = system: Pseudomonas aeruginosa; test: Antibiofilm activity against Pseudomonas aeruginosa PAO1 assessed as inhibition of biofilm formation incubated for 24 hrs by crystal violet staining based assay; type: functional, organism-based; conditions: PAO1, 24 h
[3] = system: Pseudomonas aeruginosa; test: Antibiofilm activity against Pseudomonas aeruginosa assessed as reduction in biofilm formation incubated for 24 hrs relative to control; type: functional; set-up: scale not given: the % may be the effect or the level left
[4] = system: Pseudomonas aeruginosa; test: Antimicrobial activity against Pseudomonas aeruginosa assessed as reduction in microbial growth; type: functional, organism-based
[5] = system: Bacillus subtilis; test: Antibacterial activity against Bacillus subtilis; type: functional
[6] = system: Pseudomonas aeruginosa; test: Antibacterial activity against Pseudomonas aeruginosa; type: functional
[7] = system: Staphylococcus aureus; test: Antibacterial activity against Methicillin-sensitive Staphylococcus aureus; type: functional
[8] = system: Escherichia coli; test: Antibacterial activity against Escherichia coli; type: functional
[9] = system: Bacillus pumilus; test: Antibacterial activity against Bacillus pumilus; type: functional
[10] = system: Staphylococcus aureus; test: Antibacterial activity against Methicillin-resistant Staphylococcus aureus; type: functional
[11] = system: Pseudomonas aeruginosa; test: Antibacterial activity against Pseudomonas aeruginosa ATCC 15442 assessed as reduction in bacterial cell growth incubated for 24 hrs by two fold serial microdilution method; type: functional
[12] = system: Pseudomonas aeruginosa; test: Antivirulence activity in Pseudomonas aeruginosa PAO1 assessed as reduction in pyocyanin production at 10 uM incubated for 24 hrs by absorbance based analysis relative to control; type: functional; set-up: scale not given: the % may be the effect or the level left
[13] = Inhibition of quorum sensing system in Pseudomonas aeruginosa PAO1
[14] = system: Pseudomonas aeruginosa; test: Antibacterial activity against Pseudomonas aeruginosa PAO1 assessed as reduction in bacterial growth by broth microdilution method; type: functional, organism-based
[15] = system: Pseudomonas aeruginosa; test: Antibacterial activity against Pseudomonas aeruginosa PAO1-L; type: functional, organism-based
[16] = system: Pseudomonas aeruginosa; test: Antibiofilm activity against Pseudomonas aeruginosa PAO1 assessed as inhibition of biofilm formation at 100 uM relative to control; type: functional; set-up: scale not given: the % may be the effect or the level left
[17] = system: Pseudomonas aeruginosa; test: Antivirulence activity against Pseudomonas aeruginosa PAO1 assessed as reduction in pyocyanin level at 10 uM relative to control; type: functional; set-up: scale not given: the % may be the effect or the level left
[18] = system: Pseudomonas aeruginosa; test: Antibiofilm activity against Pseudomonas aeruginosa ATCC 27853 assessed as reduction in biofilm biomass at 16 ug/ml relative to control; type: functional; set-up: scale not given: the % may be the effect or the level left; conditions: dose 16 µg/ml
[19] = system: Pseudomonas aeruginosa; test: Antimicrobial activity against Pseudomonas aeruginosa PAO1 assessed as inhibition of bacterial growth measured for 18 hrs by CLSI-based broth microdilution method; type: functional

## COc1cc(O)c(C(=O)O)c(/C=C/c2ccc(S(F)(F)(F)(F)F)cc2)c1
[1]
  Activity: 18.95%

## COc1cc(/C=C/c2cccc3cccnc23)c(C(=O)O)c(O)c1CC=C(C)C
[1]
  Activity: 35.61%

## CCn1ccnc1
[2]
  IC50: 400 nM

## O=C1c2ccc(NS(=O)(=O)c3ccc(Cl)cc3)cc2OC2C=C(O)C=C(O)C12 (configuration not stated)
[3]
  Activity: 50%
[4]
  IC50: 100 µM

## COc1ccc(OCCCCC(=O)NNC(=O)Cn2c(=O)oc3ncccc32)cc1
[5]
  MIC: > 512 µg/mL
[6]
  MIC: > 512 µg/mL
[7]
  MIC: > 512 µg/mL
[8]
  MIC: > 512 µg/mL
[9]
  MIC: > 512 µg/mL
[10]
  MIC: > 512 µg/mL

## CC(=O)NCCCCCCCCNc1ccnc2cc(Cl)ccc12
[11]
  MIC: > 2 µM
[12]
  Activity: 42%

## O=C(CNc1ccc(C(=O)/C=C/c2cc(Cl)cc(Cl)c2)cc1)N[C@@H]1CCOC1=O
[13]
  IC50: 46.8 µM

## CC(C)c1ccc(/C=C/C(=O)c2ccc(NCC(=O)N[C@@H]3CCOC3=O)cc2)cc1
[14]
  MIC: 5 µM (≈ 2.03 µg/mL)

## N#CCc1ccc(OCC(O)Cn2cnc3ccc(Cl)cc3c2=O)cc1F (configuration not stated)
[15]
  IC50: 6.4 µM

## O=c1c(O[C@@H]2O[C@H](CO)[C@@H](O)[C@H](O)[C@H]2O)c(-c2ccc(O)c(O)c2)oc2cc(O)cc(O)c12 [ISOQUERCETIN]
[16]
  Activity: 18%

## COP(=O)(NCCCCOc1cc(O)c2c(=O)cc(-c3ccccc3)oc2c1)OC
[4]
  IC50: 100 µM

## COc1cc(/C=C/c2ccc(S(F)(F)(F)(F)F)cc2)c(C(=O)O)c(O)c1CC=C(C)C
[1]
  Activity: 50%

## O=C1c2ccc(NS(=O)(=O)c3ccc(F)cc3)cc2OC2C=C(O)C=C(O)C12 (configuration not stated)
[3]
  Activity: 78%
[4]
  IC50: 100 µM

## O=C(CCCCCOc1ccc(F)cc1)NN1C(=O)CN(c2ccccc2O)C1=O
[5]
  MIC: > 512 µg/mL
[6]
  MIC: > 512 µg/mL
[7]
  MIC: > 512 µg/mL
[8]
  MIC: > 512 µg/mL
[9]
  MIC: > 512 µg/mL
[17]
  Activity: 61%

## COc1cccc(/C=C/C(=O)c2ccc(NCC(=O)N[C@@H]3CCOC3=O)cc2)c1
[13]
  IC50: 56.5 µM

## O=c1cc(-c2ccc(O)c(O)c2)oc2cc(O)c([C@@H]3O[C@H](CO)[C@@H](O)[C@H](O)[C@H]3O)c(O)c12 [ISOORIENTIN]
[16]
  Activity: 18%

## Cc1ccc(OCCCCCC(=O)NN2C(=O)CN(c3ccccc3O)C2=O)cc1
[5]
  MIC: > 512 µg/mL
[6]
  MIC: > 512 µg/mL
[7]
  MIC: > 512 µg/mL
[8]
  MIC: > 512 µg/mL
[9]
  MIC: > 512 µg/mL
[17]
  Activity: 61%

## O=c1c(O[C@@H]2O[C@H](CO)[C@H](O)[C@H](O)[C@H]2O)c(-c2ccc(O)c(O)c2)oc2cc(O)cc(O)c12 [HYPEROSIDE]
[16]
  Activity: 18%

## O=C(CNc1ccc(C(=O)/C=C/c2ccc(Br)cc2F)cc1)N[C@@H]1CCOC1=O
[13]
  IC50: 26.5 µM

## O=c1cc(-c2ccc(O)c(O)c2)oc2c([C@H]3C[C@@H](O)[C@H](O)[C@@H](CO)O3)c(O)cc(O)c12
[16]
  Activity: 18%

## O=C1O/C(=C\Br)C=C1Br
[14]
  IC50: 17.4 µM

## COc1ccc(/C=C/C(=O)O)cc1OC
[18]
  Activity: 15.79%

## O=C(CN[C@H]1CCOC1=O)Nc1ccc(C/C=C/c2ccccc2)cc1
[14]
  MIC: 5 µM (≈ 1.75 µg/mL)

## N#CCc1ccc(OCC(F)Cn2cnc3ccc(Cl)cc3c2=O)cc1 (configuration not stated)
[15]
  IC50: 4.3 µM

## O=C(CN[C@H]1CCOC1=O)Nc1ccc(C/C=C/c2ccc(Cl)c(Cl)c2)cc1
[14]
  MIC: 5 µM (≈ 2.1 µg/mL)

## O=C(CCCCCOc1ccc(C(F)(F)F)cc1)NNC(=O)Cn1c(=O)oc2ncccc21
[5]
  MIC: > 512 µg/mL
[6]
  MIC: > 512 µg/mL
[7]
  MIC: > 512 µg/mL
[8]
  MIC: > 512 µg/mL
[9]
  MIC: > 512 µg/mL
[10]
  MIC: > 512 µg/mL
[17]
  Activity: 53.1%

## Clc1ccc2c(NCCCCCCCCNCc3cc4ccccc4s3)ccnc2c1
[11]
  MIC: > 2 µM
[12]
  Activity: 97%

## CC(C)OP(=O)(NCCCCOc1cc(O)c2c(=O)cc(-c3ccccc3)oc2c1)OC(C)C
[4]
  IC50: 100 µM

## O=C(/C=C/c1ccc(O)c(O)c1)OCCc1ccc(Cl)cc1
[18]
  Activity: 30.41%

## CCCCCCCCNc1ccnc2cc(Cl)ccc12
[11]
  MIC: > 2 µM
[12]
  Activity: 80%

## O=c1c(-c2ccc(O)cc2)coc2cc(O)cc(O)c12 [GENISTEIN]
[19]
  MIC: 0.48 µg/mL (≈ 1.78 µM)

## O=C(CCCCCOc1ccc([N+](=O)[O-])cc1)NNC(=O)Cn1c(=O)oc2ncccc21
[5]
  MIC: > 512 µg/mL
[6]
  MIC: > 512 µg/mL
[7]
  MIC: > 512 µg/mL
[8]
  MIC: > 512 µg/mL
[9]
  MIC: > 512 µg/mL
[10]
  MIC: > 512 µg/mL

## COc1cc(/C=C/c2cncnc2)c(C(=O)O)c(O)c1CC=C(C)C
[1]
  Activity: 36.11%

## O=C(COc1ccc(C(=O)/C=C/c2ccccc2Cl)cc1)N[C@H]1CCOC1=O
[14]
  MIC: 5 µM (≈ 2 µg/mL)

## Nc1ccc(S(=O)(=O)Nc2ccc3c(c2)OC2C=C(O)C=C(O)C2C3=O)cc1 (configuration not stated)
[3]
  Activity: 50%
[4]
  IC50: 100 µM

Reference: ChEMBL document CHEMBL6153025, “Multidrug-resistant bacteria quorum-sensing inhibitors: A particular focus on Pseudomonasaeruginosa” (Eur J Med Chem, 2025)
